How the values were obtained:
[1] = system: mitochondrial division; conditions: mitochondrial division inhibitor; cited from earlier work
[2] = system: Dnm2 mRNA; test: Dnm2 mRNA expression by RT-qPCR in C2C12 cells; assay type: cell-based; conditions: C2C12 mouse myoblast cells, 24 hrs, 20 µM (with PBS control, or with ASO-ctrl)
Description: For experiments in mouse immortalized myoblasts (C2C12 cells), the ASOs were electroporated at 2 µM in 2 mm cuvettes, at 150V for 5 ms (one pulse) for 2 million cells in a volume of 400 µl PBS, or in 4mm cuvettes, at 300V for 5 ms (one pulse) for 4 million cells in a volume of 800 µl PBS. Table 2. Antisense oligonucleotides
For experiments conducted in mouse immortalized myoblasts (C2C12 cells), 4-hydroxytamoxifen (5 mg/ml solution, Sigma #SML-1666) was used. The stock solution at 13mM in ethanol:isopropanol (95:5) was diluted in cell culture medium to obtain a working concentration of 20 µM. For vehicle control cells (no treatment), ethanol:isopropanol (95:5) was added to the cell culture medium.
The […] immortalized myoblast cells were cultured in DMEM with 1g/l glucose (Gibco) with 20% FBS (Gibco) + 40 µg/ml Gentamycin (Gibco). The cells were electroporated with either PBS, ASO-ctrl or ASO-Dnm2 at 2 µM, and/or treated with 4-OH-tamoxifen at 20 µM in the cell culture medium, as described in 1.1. The experiment was done in duplicate wells, in 6-well plates. After 24 hrs of treatment, cells were collected and either RNA was extracted for RT-qPCR or protein was extracted for Western Blot. […]

[3] = system: Mtm1^-/y mice; test: Disease Severity Score (DSS) in Mtm1-/y mice; assay type: in vivo; conditions: at 12 weeks old, score 0 (no disease) to 5 (most severe), ASO 3 mg/kg i.p. weekly, tamoxifen 10 mg/kg of diet
Description: (§1) For experiments in mice, the ASOs were injected intraperitonally (i.p.) weekly from 4 weeks to 12 weeks of age at 3 mg/kg.
(§2) For experiments in mice, pellets of diet were supplemented with tamoxifen citrate (SAFE; […]) to achieve 10 mg of tamoxifen free base per kg of chow. Pellets of diet devoid of tamoxifen were used as a control (to be administered with ASO-ctrl).
(§3) Mtm1 deficient mice in the 129Pas genetic background were obtained from Dr. Laporte (IGBMC, Illkirch, France). Wild type males were bred with Mtm1^+/- heterozygous females. The Mtm1^+/y (wild type, i.e. WT) and Mtm1^-/y (mutant) males in the progeny were used in the experiments. The Mtm1^-/y knock-out mice reproduce the hallmarks of XL-CNM patients such as abnormal position of the organelles, defects in the localization of the nuclei and muscle atrophy, associated with progressive muscle weakness including respiratory weakness, leading to death between 6 and 14 weeks of age (Buj-Bello et al., Proc Natl Acad Sci USA, 2002; 99: 15060-15065; Al-Qusairi,et al, Proc Natl Acad Sci USA, 2009; 106: 18763-18768).
(§4) Weekly i.p. injections of 3 mg/kg of antisense were performed in the Mtm1^+/y and Mtm1^-/y mice, from 4 to 12 weeks of age. […]
Disease Severity Score was calculated to monitor the clinical appearance of mice (n = 10 per group). […]

[4] = system: Mtm1^-/y mice; test: Lifespan / survival of Mtm1-/y mice (XL-CNM model); assay type: in vivo; conditions: at the end of the study (12 weeks old), ASO 3 mg/kg i.p. weekly from 4 weeks, tamoxifen 10 mg/kg of diet
Description: as §1, §2, §3
Animals were followed for up to 12 weeks old, with weekly recordings of clinical signs and survival. Treatments were started when disease started to manifest, i.e. at 4 weeks of age.
as §4

[5] = system: Mtm1^-/y mice; test: Hanging test (whole-body strength) in Mtm1-/y mice; assay type: in vivo; conditions: at 12 weeks of age, mean ± SD, cut-off 60 seconds, ASO 3 mg/kg i.p. weekly, tamoxifen 10 mg/kg of diet
Description: as §1, §2
as §3, with “18763-18768). […]” for “18763-18768).”
Whole-body strength of mice was evaluated using the hanging test. […] The latency time for the mouse to fall in the cage was measured, with a cut-off time of 60 seconds. […] The maximum hanging time was recorded. […]

[6] = system: Mtm1^-/y mice; test: Body weight of Mtm1-/y mice; assay type: in vivo; conditions: at 12 weeks, mean ± SD, ASO 3 mg/kg i.p. weekly, tamoxifen 10 mg/kg of diet
Description: as §1, §2, §3
Weekly i.p. injections of 3 mg/kg of antisense were performed in the Mtm1^+/y and Mtm1^-/y mice, from 4 to 12 weeks of age. Alongside these injections, mice were fed pellets of diets containing tamoxifen citrate (10 mg/kg) or devoid of tamoxifen. […]

[7] = system: DNM2; test: DNM2 protein expression by Western blot in C2C12 cells; assay type: cell-based, mouse; conditions: C2C12 cells, 5, 10 or 20 µM (with PBS control, or with ASO-ctrl)
Description: For experiments in mouse immortalized myoblasts (C2C12 cells), the ASOs were electroporated at 2 μM in 2 mm cuvettes, at 150V for 5 ms (one pulse) for 2 million cells in a volume of 400 μl PBS, or in 4mm cuvettes, at [MUT] for 5 ms (one pulse) for 4 million cells in a volume of 800 μl PBS. […] The [MUT] immortalized myoblast cells were cultured in DMEM with 1g/l glucose (Gibco) with 20% FBS (Gibco) + 40 μg/ml Gentamycin (Gibco). The cells were electroporated with either PBS, ASO-ctrl or ASO-Dnm2 at 2 μM, and/or treated with 4-OH-tamoxifen at 20 μM in the cell culture medium, as described in 1.1. The experiment was done in duplicate wells, in 6-well plates. After 24 hrs of treatment, cells were collected and either RNA was extracted for RT-qPCR or protein was extracted for Western Blot. Myoblast C2C12 cells, treated with either (i) PBS + Tamoxifen (20 μM), (ii) ASO ctrl (2 μM), (iii) ASO ctrl (2 μM) + Tamoxifen (20 μM), (iv) ASO-Dnm2 (2 μM) or (v) ASO-Dnm2 (2 μM) + Tamoxifen (20 μM), were lysed in RIPA buffer (Thermo Scientific) supplemented with Halt protease inhibitor cocktail (Thermo Scientific). Protein concentration was determined with the BioRad DC protein Assay kit. Samples were diluted in RIPA buffer, NuPAGE LDS sample buffer and NuPAGE Sample Reducing Agent and denaturated at 70°C for 10 min. […]

[8] = system: dynamin 2; conditions: dynamin 2 inhibitor, value stated in the list of known inhibitors; cited from earlier work

Question: With `COc1cc(-n2c(S)nc3ccccc3c2=O)c(Cl)cc1Cl` [m-divi 1, 3-(2,4-Dichloro-5-methoxyphenyl)-2-sulfanylquinazolin-4(3H)-one] as the molecule, how does the IC50 [1] read?
Answer: The IC50 was 10 µM.

Question: Which “Dnm2 mRNA expression” value [2] does the source give for `CC/C(=C(\c1ccccc1)c1ccc(OCCN(C)C)cc1)c1ccccc1` [tamoxifen, 2-[4-[(Z)-1,2-diphenylbut-1-enyl]phenoxy]-N,N-dimethylethanamine] here?
Answer: Its value is “did not reduce”.

Question: And the “Disease Severity Score (DSS), mean score” value [3]?
Answer: Its value is 3.3.

Question: What about the survival rate [4] of the same molecule?
Answer: The survival rate was 70%.

Question: What about the “holding time (hanging test)” value [5] of the same molecule?
Answer: Its value is 35.3 ± 24.4 s.

Question: And the body weight [6]?
Answer: The body weight was 15.3 ± 0.4 g.

Question: And the DNM2 protein expression [7]?
Answer: The DNM2 protein expression was “did not reduce”.

Question: For `O=C(NN=Cc1cc(O)c(O)cc1O)c1cc2ccccc2cc1O` [hydroxy-Dynasore, 3-hydroxy-N'-[(2,4,5-trihydroxyphenyl)methylidene]naphthalene-2-carbohydrazide], which IC50 [8] is on record?
Answer: Its IC50 is 2.6 µM.

— patent EP4311546A1, “COMBINATION THERAPY FOR MYOPATHIES” (Dynacure, priority 2022, dated 2024)
